From paper PMC8773749, “Combinatorial Virtual Screening Revealed a Novel Scaffold for TNKS Inhibition to Combat Colorectal Cancer” (Biomedicines, 2022)

Tests used:
TNKS-1 [1] = target: T1, TNKS-1 (Homo sapiens, UniProt O95271); assay: TNKS-1 histone ribosylation colorimetric assay, single concentration […]; format: biochemical
TNKS-1 [2] = target: T1, TNKS-1; assay: TNKS-1 histone ribosylation colorimetric assay (BPS Bioscience kit); format: biochemical

T1 sequence (O95271 whole entry): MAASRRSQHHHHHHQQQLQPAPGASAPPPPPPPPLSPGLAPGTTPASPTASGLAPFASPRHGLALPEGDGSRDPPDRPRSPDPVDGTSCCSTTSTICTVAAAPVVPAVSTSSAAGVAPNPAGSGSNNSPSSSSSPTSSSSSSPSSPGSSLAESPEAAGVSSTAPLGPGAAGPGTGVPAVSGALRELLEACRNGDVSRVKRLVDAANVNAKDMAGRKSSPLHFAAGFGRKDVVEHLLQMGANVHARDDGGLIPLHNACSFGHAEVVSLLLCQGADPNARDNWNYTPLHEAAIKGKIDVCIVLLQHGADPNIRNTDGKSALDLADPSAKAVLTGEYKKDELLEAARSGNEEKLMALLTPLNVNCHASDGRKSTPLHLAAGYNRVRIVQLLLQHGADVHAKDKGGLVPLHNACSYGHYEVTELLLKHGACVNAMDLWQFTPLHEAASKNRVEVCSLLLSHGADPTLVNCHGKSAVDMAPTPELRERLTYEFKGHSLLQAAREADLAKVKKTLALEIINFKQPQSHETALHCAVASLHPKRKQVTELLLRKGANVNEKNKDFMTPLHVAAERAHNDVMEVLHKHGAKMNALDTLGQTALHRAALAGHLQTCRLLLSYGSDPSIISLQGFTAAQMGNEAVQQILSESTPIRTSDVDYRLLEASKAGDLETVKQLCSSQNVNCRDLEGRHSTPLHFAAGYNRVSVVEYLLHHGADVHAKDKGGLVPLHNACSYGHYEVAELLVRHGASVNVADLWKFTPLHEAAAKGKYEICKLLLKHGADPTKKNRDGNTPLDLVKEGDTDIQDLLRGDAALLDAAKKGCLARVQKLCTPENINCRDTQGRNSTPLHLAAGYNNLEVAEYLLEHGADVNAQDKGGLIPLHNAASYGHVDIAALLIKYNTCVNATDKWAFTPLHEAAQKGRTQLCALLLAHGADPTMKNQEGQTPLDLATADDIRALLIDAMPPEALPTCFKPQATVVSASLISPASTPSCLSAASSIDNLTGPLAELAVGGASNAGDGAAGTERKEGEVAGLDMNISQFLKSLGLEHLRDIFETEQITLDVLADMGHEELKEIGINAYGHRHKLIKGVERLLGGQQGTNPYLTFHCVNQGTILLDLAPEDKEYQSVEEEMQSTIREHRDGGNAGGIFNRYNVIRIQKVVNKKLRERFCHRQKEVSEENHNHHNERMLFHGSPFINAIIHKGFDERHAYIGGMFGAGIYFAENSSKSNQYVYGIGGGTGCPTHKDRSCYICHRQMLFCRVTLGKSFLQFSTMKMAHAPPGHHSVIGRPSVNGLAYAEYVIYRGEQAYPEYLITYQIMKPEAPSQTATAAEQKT

Compound	% of Inhibition at 10 μM / TNKS-1 ^c (TNKS-1 [1])	IC50 (TNKS-1 [2]) [nM]
CN(C)c1ccc2c(c1)oc(=O)c1ccccc12 [NSC102371]	88.54	
Cc1c(Cl)c2ccc(N(C)C)cc2[nH]c1=O [NSC319963]		21.9
Cc1c(C)c2ccc(N(C)C)cc2[nH]c1=O [NSC295092]		66.1
CN(C)c1ccc2c3c(c(=O)oc2c1)CCC3 [NSC315247]	60.07	
COc1ccc(-c2cc3ccccc3c(=O)o2)cc1 [NSC123012]	50.92	
